Tested on: MV-4-11 cells
Test: Gene expression microarray analysis (Affymetrix PrimeView) and GSEA
Assay type: cell-based, human
Set-up: RFU PODN (11730768_x_at) / Fold change /veh PODN (11730768_x_at) / RFU LINC00158 (11744669_a_at) / Fold change /veh LINC00158 (11744669_a_at) / RFU DUSP10 (11751237_a_at) / Fold change /veh DUSP10 (11751237_a_at) / RFU ID3 (11757404_x_at) / Fold change /veh ID3 (11757404_x_at) / RFU PLEKHG5 (11737974_s_at) / Fold change /veh PLEKHG5 (11737974_s_at) / RFU LRRC4B (11730491_at) / Fold change /veh LRRC4B (11730491_at) / RFU GIMAP4 (11747438_a_at) / Fold change /veh GIMAP4 (11747438_a_at) / RFU KRT8 (11758183_x_at) / Fold change /veh KRT8 (11758183_x_at) / RFU CNN1 (11734310_a_at) / Fold change /veh CNN1 (11734310_a_at) / RFU VPS37D (11726825_at) / Fold change /veh VPS37D (11726825_at) / RFU C10orf10 (11716522_x_at) / Fold change /veh C10orf10 (11716522_x_at) / RFU KIR2DL2 /// KIR2DL4 /// KIR2DL5A /// KIR2DL5B /// KIR2DS1 /// KIR2DS2 /// KIR2DS3 /// KIR2DS4 /// KIR3DL3 /// KIR3DL3 /// KIR3DS1 (11738374_at) / Fold change /veh KIR2DL2 /// KIR2DL4 /// KIR2DL5A /// KIR2DL5B /// KIR2DS1 /// KIR2DS2 /// KIR2DS3 /// KIR2DS4 /// KIR3DL3 /// KIR3DL3 /// KIR3DS1 (11738374_at) / RFU C1QL1 (11718748_at) / Fold change /veh C1QL1 (11718748_at) / RFU TMPRSS4 (11747572_a_at) / Fold change /veh TMPRSS4 (11747572_a_at) / RFU HAMP (11756126_x_at) / Fold change /veh HAMP (11756126_x_at) / RFU RNFT2 (11725882_a_at) / Fold change /veh RNFT2 (11725882_a_at) / RFU NR4A2 (11747474_a_at) / Fold change /veh NR4A2 (11747474_a_at) / RFU ABCC12 (11746883_a_at) / Fold change /veh ABCC12 (11746883_a_at) / RFU TMEM136 (11760407_x_at) / Fold change /veh TMEM136 (11760407_x_at) / RFU CLDN22 /// WWC2 (11732394_at) / Fold change /veh CLDN22 /// WWC2 (11732394_at) / RFU HLA-DPB1 (11760878_x_at) / Fold change /veh HLA-DPB1 (11760878_x_at) / RFU SPINT1 (11716480_a_at) / Fold change /veh SPINT1 (11716480_a_at) / RFU GAP43 (11754022_s_at) / Fold change /veh GAP43 (11754022_s_at) / RFU A4GNT (11735810_at) / Fold change /veh A4GNT (11735810_at) / RFU PRB3 (11715151_x_at) / Fold change /veh PRB3 (11715151_x_at) / RFU TUBB4B (11761932_at) / Fold change /veh TUBB4B (11761932_at) / RFU CAPN14 (11732068_a_at) / Fold change /veh CAPN14 (11732068_a_at) / RFU TMCC2 (11721928_a_at) / Fold change /veh TMCC2 (11721928_a_at) / RFU IRGQ (11745062_a_at) / Fold change /veh IRGQ (11745062_a_at) / RFU FAM174B (11720279_a_at) / Fold change /veh FAM174B (11720279_a_at) / RFU TMPRSS4 (11748680_a_at) / Fold change /veh TMPRSS4 (11748680_a_at) / RFU FAM212B (11763350_a_at) / Fold change /veh FAM212B (11763350_a_at) / RFU PLEKHG5 (11743358_a_at) / Fold change /veh PLEKHG5 (11743358_a_at) / RFU ZSCAN30 (11745921_a_at) / Fold change /veh ZSCAN30 (11745921_a_at) / RFU CMKLR1 (11741424_a_at) / Fold change /veh CMKLR1 (11741424_a_at) / RFU LOC101060620 /// MAPK8IP1 (11723275_at) / Fold change /veh LOC101060620 /// MAPK8IP1 (11723275_at) / RFU SPTSSB (11747773_x_at) / Fold change /veh SPTSSB (11747773_x_at) / RFU PRSS12 (11739890_at) / Fold change /veh PRSS12 (11739890_at) / RFU BIN1 (11741810_x_at) / Fold change /veh BIN1 (11741810_x_at) / RFU WNT11 (11732464_a_at) / Fold change /veh WNT11 (11732464_a_at) / RFU C10orf10 (11716521_a_at) / Fold change /veh C10orf10 (11716521_a_at) / RFU C5orf56 (11738089_at) / Fold change /veh C5orf56 (11738089_at) / RFU CYB561 (11721691_x_at) / Fold change /veh CYB561 (11721691_x_at) / RFU ANKRD19P (11752326_a_at) / Fold change /veh ANKRD19P (11752326_a_at) / RFU OR2T12 /// OR2T33 /// OR2T8 (11738714_s_at) / Fold change /veh OR2T12 /// OR2T33 /// OR2T8 (11738714_s_at) / RFU VCAN (11748164_a_at) / Fold change /veh VCAN (11748164_a_at) / RFU JSRP1 (11732532_at) / Fold change /veh JSRP1 (11732532_at) / RFU KRTAP10-11 (11738290_x_at) / Fold change /veh KRTAP10-11 (11738290_x_at) / RFU MYO3A (11730013_a_at) / Fold change /veh MYO3A (11730013_a_at) / RFU EBF3 (11725865_a_at) / Fold change /veh EBF3 (11725865_a_at) / RFU CAMK2N1 (11719241_x_at) / Fold change /veh CAMK2N1 (11719241_x_at) / RFU C5orf56 (11738088_a_at) / Fold change /veh C5orf56 (11738088_a_at) / RFU OLFML3 (11715873_a_at) / Fold change /veh OLFML3 (11715873_a_at) / RFU LOC100653217 /// NTM (11731650_a_at) / Fold change /veh LOC100653217 /// NTM (11731650_a_at) / RFU MAPK11 (11762145_a_at) / Fold change /veh MAPK11 (11762145_a_at) / RFU FIZ1 (11724087_x_at) / Fold change /veh FIZ1 (11724087_x_at) / RFU OASL (11726364_x_at) / Fold change /veh OASL (11726364_x_at) / RFU SOX15 (11748057_x_at) / Fold change /veh SOX15 (11748057_x_at) / RFU CD79A (11719716_a_at) / Fold change /veh CD79A (11719716_a_at) / RFU HIST1H1D (11736915_at) / Fold change /veh HIST1H1D (11736915_at) / RFU CASKIN2 (11723855_a_at) / Fold change /veh CASKIN2 (11723855_a_at) / RFU LOC730098 (11760151_x_at) / Fold change /veh LOC730098 (11760151_x_at) / RFU OR4N2 (11742367_at) / Fold change /veh OR4N2 (11742367_at) / RFU PRRT2 (11749266_a_at) / Fold change /veh PRRT2 (11749266_a_at) / RFU SNX32 (11753110_a_at) / Fold change /veh SNX32 (11753110_a_at) / RFU CDHR5 (11726645_a_at) / Fold change /veh CDHR5 (11726645_a_at) / RFU RCAN1 (11760418_a_at) / Fold change /veh RCAN1 (11760418_a_at) / RFU FAM167A (11723789_a_at) / Fold change /veh FAM167A (11723789_a_at) / RFU FAM26E (11764081_at) / Fold change /veh FAM26E (11764081_at) / RFU ISYNA1 (11749810_s_at) / Fold change /veh ISYNA1 (11749810_s_at) / RFU ACY1 (11761880_at) / Fold change /veh ACY1 (11761880_at) / RFU 11764098_at / Fold change /veh 11764098_at / RFU SAMD14 (11745864_x_at) / Fold change /veh SAMD14 (11745864_x_at) / RFU NPB (11741838_a_at) / Fold change /veh NPB (11741838_a_at) / RFU TMPRSS6 (11731388_a_at) / Fold change /veh TMPRSS6 (11731388_a_at) / RFU KRTAP10-2 (11738614_at) / Fold change /veh KRTAP10-2 (11738614_at) / RFU ARHGAP8 /// PRR5-ARHGAP8 (11727945_x_at) / Fold change /veh ARHGAP8 /// PRR5-ARHGAP8 (11727945_x_at) / RFU KRTAP5-7 /// NADSYN1 (11734609_at) / Fold change /veh KRTAP5-7 /// NADSYN1 (11734609_at) / RFU RASL12 (11751679_a_at) / Fold change /veh RASL12 (11751679_a_at) / RFU CDKN2B (11736163_a_at) / Fold change /veh CDKN2B (11736163_a_at) / RFU PRF1 (11729649_at) / Fold change /veh PRF1 (11729649_at) / RFU, ZNF638 /// ZNF638-IT1 / Fold change vs veh, ZNF638 /// ZNF638-IT1 / RFU, PANK3 / Fold change vs veh, PANK3 / RFU, SH3YL1 / Fold change vs veh, SH3YL1 / RFU, ZEB2 / Fold change vs veh, ZEB2 / RFU, NRIP1 / Fold change vs veh, NRIP1 / RFU, PTTG1IP / Fold change vs veh, PTTG1IP / RFU, CAPN2 / Fold change vs veh, CAPN2 / RFU, MED14 / Fold change vs veh, MED14 / RFU, SNORA58 / Fold change vs veh, SNORA58 / RFU, C1orf63 / Fold change vs veh, C1orf63 / RFU, LRRFIP1 / Fold change vs veh, LRRFIP1 / RFU, NDUFAF7 / Fold change vs veh, NDUFAF7 / RFU, SLC12A2 / Fold change vs veh, SLC12A2 / RFU, IBTK / Fold change vs veh, IBTK / RFU, ESF1 / Fold change vs veh, ESF1 / Fold change vs veh, TMEM50B / RFU, TAOK1 / Fold change vs veh, TAOK1 / RFU, ACBD3 / Fold change vs veh, ACBD3 / RFU, TMA16 / Fold change vs veh, TMA16 / RFU, RWDD3 / Fold change vs veh, RWDD3 / RFU, BCAT1 / Fold change vs veh, BCAT1 / RFU, EDEM3 / Fold change vs veh, EDEM3 / RFU, TMEM33 / Fold change vs veh, TMEM33 / RFU, WDR75 / Fold change vs veh, WDR75 / RFU, AHCTF1 / Fold change vs veh, AHCTF1 / RFU, TFRC / Fold change vs veh, TFRC / RFU, ZDHHC17 / Fold change vs veh, ZDHHC17 / RFU, NOM1 / Fold change vs veh, NOM1 / RFU, ARL8B / Fold change vs veh, ARL8B / RFU, ZBTB11 / Fold change vs veh, ZBTB11 / RFU, TAMM41 / Fold change vs veh, TAMM41 / RFU, KIAA1704 /// LOC100996395 / Fold change vs veh, KIAA1704 /// LOC100996395 / RFU, ING1 / Fold change vs veh, ING1 / RFU, TRMT61B / Fold change vs veh, TRMT61B / RFU, FUBP3 / Fold change vs veh, FUBP3 / RFU, TP53 / Fold change vs veh, TP53 / RFU, TNKS2 / Fold change vs veh, TNKS2 / RFU, ZFP14 / Fold change vs veh, ZFP14 / RFU, ACTR2 / Fold change vs veh, ACTR2 / RFU, PPP3R1 / Fold change vs veh, PPP3R1 / RFU, PIK3R1 / Fold change vs veh, PIK3R1 / RFU, HNRNPA1 / Fold change vs veh, HNRNPA1 / RFU, RNF170 / Fold change vs veh, RNF170 / RFU, ZNF28 / Fold change vs veh, ZNF28 / RFU, RNGTT / Fold change vs veh, RNGTT / RFU, OGT / Fold change vs veh, OGT / RFU, BRD1 / Fold change vs veh, BRD1 / RFU, MARS / Fold change vs veh, MARS / RFU, ZNF655 / Fold change vs veh, ZNF655 / RFU, FAHD1 / Fold change vs veh, FAHD1 / RFU, BDP1 / Fold change vs veh, BDP1 / RFU, LRRCC1 / Fold change vs veh, LRRCC1 / RFU, ARID1A / Fold change vs veh, ARID1A / RFU, ZNF146 / Fold change vs veh, ZNF146 / RFU, ZNF330 / Fold change vs veh, ZNF330 / RFU, GPN3 / Fold change vs veh, GPN3 / RFU, C9orf123 / Fold change vs veh, C9orf123 / RFU, N4BP2L2 / Fold change vs veh, N4BP2L2 / RFU, ARFIP1 / Fold change vs veh, ARFIP1 / RFU, FAM179B / Fold change vs veh, FAM179B / RFU, BCL10 / Fold change vs veh, BCL10 / RFU, UHRF1BP1L / Fold change vs veh, UHRF1BP1L / RFU, BET1 / Fold change vs veh, BET1 / RFU, CNOT2 / Fold change vs veh, CNOT2 / RFU, ZNF268 / Fold change vs veh, ZNF268 / Fold change vs veh, ZNF507 / RFU, DGCR2 / Fold change vs veh, DGCR2 / RFU, WDSUB1 / Fold change vs veh, WDSUB1 / Fold change vs veh, HSP90B1 /// MIR3652 / RFU, ADSS / Fold change vs veh, ADSS / RFU, GK / Fold change vs veh, GK / RFU, ZNF148 / Fold change vs veh, ZNF148 / RFU, TAF9 / Fold change vs veh, TAF9 / RFU, SLC1A5 / Fold change vs veh, SLC1A5 / RFU, SLMO2 / Fold change vs veh, SLMO2 / RFU, ABCC4 / Fold change vs veh, ABCC4 / RFU, LOC101060439 /// RAP1B / Fold change vs veh, LOC101060439 /// RAP1B / RFU, RFX7 / Fold change vs veh, RFX7 / RFU, GTPBP10 / Fold change vs veh, GTPBP10 / RFU, CNEP1R1 / Fold change vs veh, CNEP1R1 / RFU, BIVM-ERCC5 /// ERCC5 / Fold change vs veh, BIVM-ERCC5 /// ERCC5 / RFU, ILF3 / Fold change vs veh, ILF3 / RFU 11762660_at / Fold change /veh 11762660_at / RFU VCAN (11757783_s_at) / Fold change /veh VCAN (11757783_s_at) / RFU DDX43 (11728927_at) / Fold change /veh DDX43 (11728927_at) / RFU KRT8 (11758188_x_at) / Fold change /veh KRT8 (11758188_x_at) / RFU NKD1 (11759106_at) / Fold change /veh NKD1 (11759106_at) / RFU SRD5A1 (11742802_a_at) / Fold change /veh SRD5A1 (11742802_a_at) / RFU TPSAB1 /// TPSB2 (11721975_s_at) / Fold change /veh TPSAB1 /// TPSB2 (11721975_s_at) / RFU GSTM3 (11746129_a_at) / Fold change /veh GSTM3 (11746129_a_at) / RFU IL23R (11737362_x_at) / Fold change /veh IL23R (11737362_x_at) / RFU TMEM51 (11727254_a_at) / Fold change /veh TMEM51 (11727254_a_at) / RFU PIWIL2 (11732686_x_at) / Fold change /veh PIWIL2 (11732686_x_at) / RFU ORM1 (11744905_x_at) / Fold change /veh ORM1 (11744905_x_at) / RFU CCDC152 (11743942_at) / Fold change /veh CCDC152 (11743942_at) / RFU ECM1 (11717891_a_at) / Fold change /veh ECM1 (11717891_a_at) / RFU IL23R (11748794_a_at) / Fold change /veh IL23R (11748794_a_at) / RFU TNFAIP8L3 (11732012_x_at) / Fold change /veh TNFAIP8L3 (11732012_x_at) / RFU MBOAT4 (11741988_at) / Fold change /veh MBOAT4 (11741988_at) / RFU 11764193_at / Fold change /veh 11764193_at / RFU TMEM53 (11763286_at) / Fold change /veh TMEM53 (11763286_at) / RFU MAGEB2 (11727129_at) / Fold change /veh MAGEB2 (11727129_at) / RFU TMEM200A (11744735_a_at) / Fold change /veh TMEM200A (11744735_a_at) / RFU CCDC152 (11751479_a_at) / Fold change /veh CCDC152 (11751479_a_at) / RFU FAM211A (11726209_a_at) / Fold change /veh FAM211A (11726209_a_at) / RFU RGS16 (11746705_a_at) / Fold change /veh RGS16 (11746705_a_at) / RFU VCAN (11755009_s_at) / Fold change /veh VCAN (11755009_s_at) / RFU RHOB (11743442_s_at) / Fold change /veh RHOB (11743442_s_at) / RFU RGS16 (11720943_a_at) / Fold change /veh RGS16 (11720943_a_at) / RFU RGS16 (11720944_at) / Fold change /veh RGS16 (11720944_at) / RFU, VPS4B / Fold change vs veh, VPS4B / RFU, CREB1 / Fold change vs veh, CREB1 / RFU, DNAJC13 / Fold change vs veh, DNAJC13 / RFU, GNAQ / Fold change vs veh, GNAQ / RFU, CDK5R1 / Fold change vs veh, CDK5R1 / RFU, ZRANB3 / Fold change vs veh, ZRANB3 / RFU, CUL4A / Fold change vs veh, CUL4A / RFU, CCNY / Fold change vs veh, CCNY / RFU, UFL1 / Fold change vs veh, UFL1 / RFU, COG3 / Fold change vs veh, COG3 / RFU, DIAPH2 / Fold change vs veh, DIAPH2 / RFU, SKA2 / Fold change vs veh, SKA2 / RFU, AFF3 / Fold change vs veh, AFF3 / RFU, LMF1 / Fold change vs veh, LMF1 / RFU, IPO11 / Fold change vs veh, IPO11 / RFU, DFFB / Fold change vs veh, DFFB / RFU, FOXP1 / Fold change vs veh, FOXP1 / RFU, CARD8 / Fold change vs veh, CARD8 / RFU, STRN3 / Fold change vs veh, STRN3 / RFU, ADK / Fold change vs veh, ADK / RFU, RASSF2 / Fold change vs veh, RASSF2 / RFU, WIPF1 / Fold change vs veh, WIPF1 / RFU, LARP1B / Fold change vs veh, LARP1B / RFU, RASA1 / Fold change vs veh, RASA1 / RFU, RB1 / Fold change vs veh, RB1 / RFU, PPFIA1 / Fold change vs veh, PPFIA1 / RFU, MAT2A / Fold change vs veh, MAT2A / RFU, CCT5 / Fold change vs veh, CCT5 / RFU, WDR92 / Fold change vs veh, WDR92 / RFU, CUX1 / Fold change vs veh, CUX1 / RFU, TTC7A / Fold change vs veh, TTC7A / RFU, TMEM135 / Fold change vs veh, TMEM135 / RFU, DEPTOR / Fold change vs veh, DEPTOR / RFU, CPM / Fold change vs veh, CPM / RFU, DNAJB6 / Fold change vs veh, DNAJB6 / RFU, CACNA2D3 / Fold change vs veh, CACNA2D3 / RFU, DTX4 / Fold change vs veh, DTX4 / RFU, TFCP2 / Fold change vs veh, TFCP2 / RFU, GMCL1 /// GMCL1P1 / Fold change vs veh, GMCL1 /// GMCL1P1 / RFU, AEBP2 / Fold change vs veh, AEBP2 / RFU, SNHG1 /// SNORD22 /// SNORD25 /// SNORD26 /// SNORD27 /// SNORD28 /// SNORD29 /// SNORD31 / Fold change vs veh, SNHG1 /// SNORD22 /// SNORD25 /// SNORD26 /// SNORD27 /// SNORD28 /// SNORD29 /// SNORD31 / Fold change (Aza/veh), C12orf56 (ProbeSet 11735607_a_at) / Fold change (ACY-1035/veh), C12orf56 (ProbeSet 11735607_a_at) / Fold change (Aza/veh), FGFR1OP (ProbeSet 11751329_s_at) / Fold change (ACY-1035/veh), FGFR1OP (ProbeSet 11751329_s_at) / Fold change (Aza/veh), VPS36 (ProbeSet 11739960_a_at) / Fold change (ACY-1035/veh), VPS36 (ProbeSet 11739960_a_at) / RFU SYPL1 (11715823_x_at) / Fold change /veh SYPL1 (11715823_x_at) / RFU IGFBP7 (11715501_s_at) / Fold change /veh IGFBP7 (11715501_s_at) / RFU REEP3 (11722064_at) / Fold change /veh REEP3 (11722064_at) / RFU IGLL1 (11728026_x_at) / Fold change /veh IGLL1 (11728026_x_at): dose or concentration left out as unconfirmed
Conditions: ProbeSet 11718977_a_at; LIST B

Nc1ncn([C@@H]2O[C@H](CO)[C@@H](O)[C@H]2O)c(=O)n1 [azacitidine]
Fold change vs veh, CAPN2: 0.92

Reference: publication PMC5218480 (PLoS ONE, 2017)
